# Laboratory results: ChEMBL document CHEMBL3856210, “Discovery of in vitro antitubercular agents through in silico ligand-based approaches” (Eur J Med Chem, 2016)
# Test: Antitubercular activity against Mycobacterium tuberculosis H37Ra ATCC 25177 after 21 days by agar dilution method
# Format: functional
# Settings: ATCC 25177, 504 h
row,Compound,MIC
1,COc1ccc(-n2c(-c3ccc(C)cc3)cc(CN3CCSCC3)c2C)cc1,1 µg/mL
2,CCc1ccc(-c2cc(CN3CCSCC3)c(C)n2-c2ccc(OC)cc2)cc1,0.5 µg/mL
3,CSc1ccc(-n2c(-c3ccc(C)cc3)cc(CN3CCSCC3)c2C)cc1,1 µg/mL
4,CSc1ccccc1-n1c(-c2ccc(F)cc2)cc(CN2CCSCC2)c1C,8 µg/mL
5,CSc1ccc(-c2cc(CN3CCSCC3)c(C)n2-c2ccc(F)cc2)cc1,< 0.125 µg/mL
6,Cc1nn(-c2ccc(Cl)cc2)c(O)c1C(=O)c1ccccc1,25 µg/mL
7,O=S(=O)(Nc1nc2ccccc2[nH]1)c1ccc(Cl)cc1,32 µg/mL
8,Cc1nn(-c2ccccc2)c(O)c1C(=O)c1ccc([N+](=O)[O-])cc1,> 100 µg/mL
9,CC(C)c1[nH]n(-c2ccc(Cl)cc2)c(=O)c1C(=O)c1ccc(Cl)cc1,32 µg/mL
10,Cc1[nH]n(-c2ccc(Br)cc2)c(=O)c1C(=O)c1ccc(Cl)cc1,4 µg/mL
11,O=C(c1ccc(Cl)cc1)c1c(C(F)(F)F)[nH]n(-c2ccc(Cl)cc2)c1=O,> 64 µg/mL
12,CC(C)c1[nH]n(-c2ccccc2)c(=O)c1C(=O)c1ccc(Cl)cc1,64 µg/mL
13,Cc1[nH]n(-c2ccc(F)cc2)c(=O)c1C(=O)c1ccc(Cl)cc1,12.5 µg/mL
14,Cc1[nH]n(-c2ccc(Cl)cc2)c(=O)c1C(=O)c1ccc(Cl)cc1,6.25 µg/mL
15,O=C(c1ccc(Cl)cc1)c1c(C(F)(F)F)[nH]n(-c2ccccc2)c1=O,> 64 µg/mL
16,O=C(c1ccc(Cl)cc1)c1c(-c2ccccc2)[nH]n(-c2ccc(Cl)cc2)c1=O,16 µg/mL
17,Cc1[nH]n(-c2ccccc2)c(=O)c1C(=O)c1cccc(F)c1,25 µg/mL
18,O=C(O[C@H](Cn1ccnc1)c1ccc(Cl)cc1)N1CCN(c2ccc(Cl)cc2)CC1,16 µg/mL
19,CC(C)c1ccc(NC(=O)O[C@H](Cn2ccnc2)c2ccc(F)cc2)cc1,16 µg/mL
20,O=C(NCCCn1ccnc1)O[C@H](Cn1ccnc1)c1ccc(F)cc1,32 µg/mL
21,O=C(Nc1ccc(Sc2ccc([N+](=O)[O-])cc2)cc1)O[C@H](Cn1ccnc1)c1ccc(Cl)cc1,16 µg/mL
22,Cc1nn2c(=O)c3c([nH]c2c1-c1ccc(Cl)cc1)CCC3,8 µg/mL

row,Compound,MIC
1,CCCc1cc(=O)n2nc(C)c(-c3ccc(Cl)cc3)c2[nH]1,8 µg/mL
2,Cc1cc(=O)n2nc(C)c(-c3ccc(Cl)cc3)c2[nH]1,32 µg/mL
3,O=C(O[C@H](Cn1ccnc1)c1ccc(F)cc1)N1CCN(c2ccc([N+](=O)[O-])cc2)CC1,32 µg/mL
4,Cc1cc(/C=N\OCc2ccccc2)c(C)n1-c1ccc(F)cc1,25 µg/mL
5,CCC/N=C(\c1ccc(Cl)cc1)c1c(C)nn(-c2ccc(Cl)cc2)c1O,> 100 µg/mL
6,Clc1cccc(CSc2nnc(-c3ccc(Cl)cc3Cl)o2)c1,32 µg/mL
7,O=C(O[C@H](Cn1ccnc1)c1ccc(F)cc1)N1CCN(C(=O)c2ccco2)CC1,64 µg/mL
8,CCOc1ccc(NC(=O)C(Cc2ccccc2)N2C(=O)c3ccccc3C2=O)cc1 (configuration not stated),32 µg/mL
9,CCN(Cc1cc2cc(C)c(C)cc2[nH]c1=O)c1ccc(OC)cc1C,> 64 µg/mL
10,Cc1cc(/C=N\OCc2cccc(F)c2)c(C)n1-c1ccc(F)cc1,> 100 µg/mL
11,O=C1NN(c2ccc(Cl)cc2)C(=O)/C1=C/c1ccc(Cl)cc1Cl,32 µg/mL
12,O=C(O[C@H](Cn1ccnc1)c1ccc(F)cc1)N1CCN(c2ccc(Cl)c(Cl)c2)CC1,16 µg/mL
13,O=C(O[C@H](Cn1ccnc1)c1ccc([N+](=O)[O-])cc1)N1CCN(c2ccc(Cl)c(Cl)c2)CC1,16 µg/mL
14,CCCc1cc(=O)n2nc(C)c(-c3ccc(OC)cc3)c2[nH]1,32 µg/mL
15,Cc1cc(/C=N\OCc2ccc(Cl)cc2)c(C)n1-c1ccc(F)cc1,50 µg/mL
16,CN1C(=O)C2C(N=C(Oc3ccc(Cl)cc3)N2Cc2cccc(F)c2)N(C)C1=O (configuration not stated),64 µg/mL
17,Cc1nn(-c2ccccc2)c(O)c1C(=O)c1ccc2ccccc2c1,25 µg/mL
18,O=C(CSc1nc2cc(Cl)ccc2s1)c1ccc(Cl)cc1,32 µg/mL
19,O=C(O[C@H](Cn1ccnc1)c1cccc2ccccc12)N1CCN(c2ccc(Cl)c(Cl)c2)CC1,16 µg/mL
20,C=CCN1CC(c2nc3ccccc3n2Cc2cccc(Cl)c2)CC1=O (configuration not stated),32 µg/mL
21,COc1ccc(CO/N=C\c2cc(C)n(-c3ccc(F)cc3)c2C)cc1,> 100 µg/mL
22,Cc1ccc(C2NC(=O)NC(O)(C(F)(F)F)C2C(=O)c2ccc(Cl)cc2)cc1 (configuration not stated),32 µg/mL

row,Compound,MIC
1,O=C1C/C(=N\c2ccc(Cl)cc2)SC1Cc1ccc(Cl)cc1 (configuration not stated),32 µg/mL
2,Cc1nn(C(C)CNC(=O)C2(c3ccc(Cl)cc3)CCOCC2)c(C)c1C (configuration not stated),64 µg/mL
3,O=C1S/C(=C\c2ccc(-c3cccc(Cl)c3Cl)o2)C(=O)N1c1ccc(Cl)cc1,64 µg/mL
4,O=C(O[C@H](Cn1ccnc1)c1ccccc1)N1CCN(c2ccc(Cl)c(Cl)c2)CC1,16 µg/mL
5,Cc1nn(-c2ccc(Cl)cc2)c(O)c1/C(=N/C1CC1)c1ccc(Cl)cc1,> 100 µg/mL
6,C=C(C)Cn1c(S)nnc1CCn1c2ccc(Cl)cc2c2cc(Cl)ccc21,32 µg/mL
7,COc1ccc(-n2c(-c3ccc(Br)cc3)cc3c2CC(C)(C)CC3=O)c(OC)c1,64 µg/mL
8,CCOC(=O)c1cnc2c(Cl)c(Cl)ccc2c1NCc1cccnc1,32 µg/mL
9,Cc1nn(-c2ccccc2)c(O)c1/C(=N/Cc1ccccc1)c1ccc(Cl)cc1,> 100 µg/mL
10,CCCOc1ccc2c(c1)sc1ncc(NC(=O)c3ccc(Cl)cc3)c(=O)n12,32 µg/mL
11,O=C(O[C@H](Cn1ccnc1)c1ccc(Cl)cc1Cl)N1CCN(c2ccc(Cl)c(Cl)c2)CC1,8 µg/mL
12,O=C(C1=C(O)C(=O)N(c2ccccc2)C1c1ccccc1F)c1ccc(Cl)cc1 (configuration not stated),32 µg/mL
13,C=CCn1cnc2sc(C)c(-c3ccc(Cl)cc3)c2c1=O,32 µg/mL
14,O=C(O[C@H](Cn1ccnc1)c1ccc(Cl)cc1)N1CCN(C(=O)c2ccco2)CC1,64 µg/mL
15,Cc1nn(-c2ccccc2)c(O)c1C(=O)c1cccs1,50 µg/mL
16,Cc1nn(-c2ccccc2)c(O)c1C(=O)/C=C/c1ccccc1,50 µg/mL
17,Cc1nn(C(=O)c2cccc([N+](=O)[O-])c2)c(C)c1Sc1ccc(Cl)cc1,32 µg/mL
18,O=C(O[C@H](Cn1ccnc1)c1ccc(-c2ccccc2)cc1)N1CCN(c2ccc(Cl)c(Cl)c2)CC1,16 µg/mL
19,Clc1ccc(C2=CSC3=NN=C(SCc4ccccn4)C23)cc1 (configuration not stated),64 µg/mL
20,Cc1cc(/C=N\OCc2ccc([N+](=O)[O-])cc2)c(C)n1-c1ccc(F)cc1,> 100 µg/mL
21,Cc1nn(-c2ccccc2)c(O)c1C(=O)c1cccnc1,> 100 µg/mL
22,Cc1nn(-c2ccc(Cl)cc2)c(O)c1/C(=N/OCc1ccccc1)c1ccc(Cl)cc1,> 100 µg/mL

row,Compound,MIC
1,Cc1ccc(-n2c(C)cc(/C=N\OCc3ccccc3)c2C)cc1,> 100 µg/mL
2,COCc1cc(=O)n2nc(C)c(-c3ccccc3OC)c2[nH]1,32 µg/mL
3,CN(C(=O)c1cccc(Cl)c1)c1nc(-c2ccccc2)cs1,64 µg/mL
4,COC(=O)C1=C(C)N(Cc2ccc(C)cc2)C(=O)/C1=C\c1ccc(C)cc1OC,32 µg/mL
5,COc1ccc(-n2c(SC)nnc2-c2ccc(Cl)cc2)c(OC)c1,32 µg/mL
6,Cc1nn(-c2ccc(F)cc2)c(OC(=O)c2ccccc2)c1C(=O)c1ccccc1,25 µg/mL
7,CNCCC/C(=C1\C(=O)N(c2ccc(Cl)cc2)N=C1C)c1ccc(Cl)cc1,64 µg/mL
8,CO/N=C(\c1ccc(Cl)cc1)c1c(C)nn(-c2ccc(Cl)cc2)c1O,25 µg/mL
9,CO/N=C(\c1ccc(Cl)cc1)c1c(C)nn(-c2ccccc2)c1O,25 µg/mL
10,CC1=NN(c2ccc(Cl)cc2)C(=O)/C1=C\N1CCNCC1C(=O)c1ccco1 (configuration not stated),32 µg/mL
11,Cc1ccccc1C(=O)c1c(C)nn(-c2ccccc2)c1O,50 µg/mL
12,O=C(O[C@H](Cn1ccnc1)c1ccc(F)cc1)N1CCN(c2ccc(Cl)cc2)CC1,16 µg/mL
13,COc1ccc(C(CNS(=O)(=O)N2CCCC2)c2c[nH]c3ccccc23)cc1 (configuration not stated),32 µg/mL
14,O=C(Cc1noc(-c2ccncc2)n1)Nc1cc(Cl)cc(Cl)c1,32 µg/mL
15,Cc1nn(-c2ccccc2)c(O)c1/C(=N/OCc1ccccc1)c1ccc(Cl)cc1,> 100 µg/mL
16,Cc1cc(/C=N\OCc2ccccc2)c(C)n1-c1ccccc1,> 100 µg/mL
17,Cc1ccc(C(=O)Oc2c(C(=O)c3ccc(C)cc3)c(C)nn2-c2ccccc2)cc1,> 100 µg/mL
18,O=C(O[C@H](Cn1ccnc1)c1ccc(Cl)cc1)c1cccc(C(F)(F)F)c1,16 µg/mL
19,Cc1ncc(-c2cc(=O)n3nc(C)c(-c4ccc(Cl)cc4)c3[nH]2)c(C)n1,2 µg/mL
20,C/C(=N\OC(=O)COc1ccc(Cl)cc1Cl)c1ccc(Br)cc1,32 µg/mL
21,Cc1ccc(-n2nc(C)c(C(=O)c3ccc(Cl)cc3)c2O)cc1,16 µg/mL
22,Cc1c(C(=O)c2ccc(Cl)cc2)c(=O)n(-c2ccc(Cl)cc2)n1Cc1ccc(F)cc1,32 µg/mL

row,Compound,MIC
1,Cc1c(C(=O)c2ccc(Cl)cc2)c(=O)n(-c2ccc(Cl)cc2)n1Cc1ccccc1,16 µg/mL
2,Cc1c(C(=O)c2ccc(Cl)cc2)c(=O)n(-c2ccccc2)n1Cc1ccc(F)cc1,32 µg/mL
3,Cc1c(C(=O)c2ccc(Cl)cc2)c(=O)n(-c2ccc(Cl)cc2)n1Cc1ccc([N+](=O)[O-])cc1,32 µg/mL
4,COCc1cc(=O)n2nc(C)c(-c3ccc(Cl)cc3)c2[nH]1,16 µg/mL
5,Cc1c(C(=O)c2ccc(Cl)cc2)c(=O)n(-c2ccccc2)n1Cc1ccc([N+](=O)[O-])cc1,> 32 µg/mL
6,Cc1nn(-c2ccccc2)c(O)c1C(=O)c1ccc(Cl)cc1,6.25 µg/mL
7,Cc1c(C(=O)c2ccc(Cl)cc2)c(=O)n(-c2ccccc2)n1Cc1ccccc1,> 64 µg/mL
8,CC1=NN(c2ccc(Cl)cc2)C(=O)/C1=C\N(C)C,> 64 µg/mL
9,CC1=NN(c2ccc(Cl)cc2)C(=O)/C1=C\N1CCN(c2ccccc2)CC1,64 µg/mL
10,CC(=O)N1CCN(/C=C2\C(=O)N(c3ccc(Cl)cc3)N=C2C)CC1,64 µg/mL
11,CC1=NN(c2ccc(Cl)cc2)C(=O)/C1=C\N1CCN(CCO)CC1,64 µg/mL
12,CC1=NN(c2ccc(Cl)cc2)C(=O)/C1=C\Nc1ccccc1,64 µg/mL
13,CCc1c(CN2CCSCC2)cc(-c2ccc(F)cc2)n1-c1ccccc1F,2 µg/mL
14,CCc1c(CN2CCSCC2)cc(-c2ccccc2F)n1-c1ccccc1F,4 µg/mL
15,CC1=NN(c2ccc(Cl)cc2)C(=O)/C1=C\N1CCOCC1,64 µg/mL
16,CCc1c(CN2CCSCC2)cc(-c2ccccc2)n1-c1ccccc1,2 µg/mL
17,CCc1c(CN2CCN(C)CC2)cc(-c2ccc(Cl)cc2)n1-c1ccc(Cl)cc1,2 µg/mL
18,CCc1c(CN2CCSCC2)cc(-c2ccccc2)n1-c1ccc(F)cc1,2 µg/mL
19,CC1=NN(c2ccc(Cl)cc2)C(=O)/C1=C\N1CCN(C)CC1,64 µg/mL
